In patent US20240408053A1, “ENTERITIS-SUPPRESSING COMPOSITION” (KOBE GAKUIN EDUCATIONAL FOUNDATION, priority 2021, published 2024):
Entries after “also recorded” stand apart in the source; their conditions may differ.

Columns and labels:
[1] = test system: MDA+HAE; assay: Lipid peroxide measurement (MDA+HAE) in colon tissue; assay type: in vivo, mice; settings: group ES: 2.0% v/v ethanol diet + 2.5 mg sesaminol per day oral, 2 weeks; group E highest
Procedure: Lipid peroxidation is used as an indicator of oxidative stress in cells and tissues; lipid peroxides produce MDA and HAE upon degradation. Therefore, the MDA+HAE level in colon tissue was examined as a marker of lipid peroxidation response.
A colon tissue sample (100 mg) was homogenized in 1 mL of 20 mM phosphate buffered saline (pH of 7.4) with a homogenizer and centrifuged at 3,000× g at 4° C. for 10 minutes. The resulting precipitate was examined for malondialdehyde (MDA) and 4-hydroxyalkenals (HAE) using a lipid peroxide assay kit (Oxford Biomedical Research, Inc.).

[2] = test system: HO-1; assay: Western blotting of HO-1 in colon tissue; assay type: in vivo, mice; settings: group ES: 2.0% v/v ethanol diet + 2.5 mg sesaminol per day oral, 2 weeks; group E significantly lower than group C
Excerpt: Chronic consumption of an excessive amount of ethanol has been reported to increase CYP2E1 and iNOS levels and cause ethanol-induced oxidative stress in the liver and other tissues. The nuclear factor erythroid 2-related factor 2/heme oxygenase-1 (Nrf2/HO-1) system has also been reported to be widely involved in the protection of cells from oxidative damage. Therefore, the expression levels of these proteins (CYP2E1, iNOS, and HO-1) in mouse colon tissue in the four groups (groups C, S, E, and ES) were examined by western blotting (WB).
A colon tissue sample (100 mg) was homogenized in 1 mL of an M-PER mammalian protein extraction reagent (Pierce) containing a diluent of a protease inhibitor cocktail (Nacalai Tesque, Inc.), and the resulting homogenate was centrifuged at 20,000× g at 4° C. for 15 minutes. The protein concentration of the supernatant was measured with a protein assay reagent (Bio-Rad Laboratories, Inc.), and equal amounts of proteins were subjected to SDS-PAGE. Electrophoresed proteins in the gel were transferred to a PVDF membrane, and the membrane was immersed in a blocking reagent (room temperature, overnight). The primary antibody (rabbit polyclonal antibody) was then reacted. […] The band intensities were quantified with ImageJ.

[3] = test system: Nrf2; assay: Nrf2 activation level in colon tissue extracts by ELISA; assay type: in vivo, mice; settings: group ES: 2.0% v/v ethanol diet + 2.5 mg sesaminol per day oral, 2 weeks; group E significantly reduced
Procedure: The Nrf2 transcription factor is a master regulator of cytoprotection and promotes HO-1 gene expression in intracellular response to oxidative stress. Thus, in terms of the decrease in the HO-1 expression level in group E, the activation level of the Nrf2 transcription factor was examined. The protein amounts in the colon tissue extracts of the groups were adjusted to be equal, and Nrf2 activation levels in the colon tissue extracts were determined by ELISA.

[4] = test system: TNF-α; assay: TNF-α expression in colon tissue (qRT-PCR, ELISA); assay type: in vivo, mice; settings: group ES: 2.0% v/v ethanol diet + 2.5 mg sesaminol per day oral, 2 weeks, vs group E; higher than group C
Excerpt: (§1) It has been reported that chronic consumption of an excessive amount of ethanol can induce inflammation associated with tumor formation in colon tissue. Therefore, in order to verify whether oral administration of sesaminol has a preventive effect on ethanol-induced colitis, the expression levels of inflammatory cytokines (TNF-α and IL-6) and chemokine (MCP-1) in the large intestinal lamina propria of the mice in the four groups (groups C, S, E, and ES) were examined by qRT-PCR and ELISA. The NF-κB activity in the mice in the four groups was also examined. NF-κB is a transcription factor that is involved in expression of genes regulating inflammation and is activated by exposure of immune cells to pro-inflammatory factors.
(§2) Total RNA was extracted from colon tissue samples. […]
(§3) A colon tissue sample (100 mg) was homogenized in 1 mL of an M-PER mammalian protein extraction reagent (Pierce) containing a diluent of a protease inhibitor cocktail (Nacalai Tesque, Inc.), and the resulting homogenate was centrifuged at 20,000× g at 4° C. for 15 minutes. The protein concentration of the supernatant was measured with a protein assay reagent (Bio-Rad Laboratories, Inc.), and equal amounts of proteins were used for analysis of the expression levels of TNF-α, IL-6, and MCP-1 by ELISA.

[5] = test system: IL-6; assay: IL-6 expression in colon tissue (qRT-PCR, ELISA); assay type: in vivo, mice; settings: group ES: 2.0% v/v ethanol diet + 2.5 mg sesaminol per day oral, 2 weeks, vs group E; higher than group C
Excerpt: as §1, §2, §3

[6] = Change in body weight and general observation, 4 weeks; assay type: in vivo; settings: groups S and ES (2.5 mg sesaminol per day, oral) vs groups C and E
Procedure: Ten-week-old C57BL/6NCr male mice were divided into four groups (eight mice per group), i.e., group C, group S, group E, and group ES, and fed daily for 4 weeks in the same manner as in Example 1.
The body weights of the mice in the above four groups (group C, group S, group E, and group ES) were measured every week.

[7] = Body weight and percentage of liver weight relative to body weight, 4 weeks; assay type: in vivo, mice; settings: mean ±SD
Excerpt: The liver function and plasma lipid level in the mice in each group were examined by measuring the percentage of the liver weight relative to the body weight, the triglyceride (TG) concentration in the liver, the aspartate aminotransferase (AST) activity in the plasma, the alanine aminotransferase (ALT) activity in the plasma, and the TG concentration in the plasma of the mice in each group.
The body weight of mice fed for 4 weeks were weighed and dissected under anesthesia. The liver was removed and weighed. The weight ratio between the body weight and the liver of each individual was evaluated.

[8] = test system: occludin; assay: Immunofluorescence staining of Occludin in colon tissue, 4 weeks; assay type: in vivo, mice; settings: group ES: 2.0% v/v ethanol diet + 2.5 mg sesaminol per day oral, group E significant decrease
Procedure: Next, in order to verify the longer-term effect of oral administration of sesaminol on ethanol-induced intestinal tight junction (TJ) dysfunction and leaky gut, histological analysis of colonic epithelial TJ proteins (ZO-1, Occludin, and Claudin-1) and analysis of the plasma LPS level were performed using the mice in each group (groups C, S, E, and ES) described in Example 7. Histological analysis was performed by immunofluorescence staining with anti-ZO-1, anti-Occludin, and anti-Claudin-1 antibodies, followed by observation under a fluorescence microscope. The Plasma LPS level was measured according to the method described in Example 6.

[9] = EtOH (2.0% v/v) + Sesaminol group ES

With Oc1cc2c(cc1C1OCC3C(c4ccc5c(c4)OCO5)OCC13)OCO2 (centres unmarked) [Sesaminol] the “MDA+HAE level in colon tissue” value [1] was “next highest value; also recorded: slightly higher than those of group C and group S”, the HO-1 expression level [2] was “recovery of the expression level” and the Nrf2 activation level [3] was “recovered to a level similar to that in group C”. For the same compound, the “expression level of TNF-α (mRNA by qRT-PCR, protein by ELISA)” value [4] was “significantly lower than those in group E”, the “expression level of IL-6 (mRNA by qRT-PCR, protein by ELISA)” value [5] was “significantly lower than those in group E” and the “body-weight changes between the groups” value [6] was “No significant differences”. The Body weight [7, 9] was 25.4 ± 1.0 g, the Liver/body weight ratio [7, 9] was 4.04 ± 0.41 g/g, % and the Body weight ([7]; Sesaminol (2.5 mg/d) group S) was 25.9 ± 0.8 g. For the same compound, the Liver/body weight ratio ([7]; Sesaminol (2.5 mg/d) group S) was 3.96 ± 0.55 g/g, % and the “protein level of Occludin in colon tissue (fluorescence microscope observation)” value [8] was “improvement in all of those levels”.
